According to patent US12168650B2, “Crystalline forms of 3-(5-(2-hydroxy-2-methylpropoxy)-6-methylpyrazin-2-yl)-1H-indole-7-carbonitrile” (NIDO BIOSCIENCES, INC., priority 2022, dated 2024):
pIC50: −log10 of the molar value. Values joined by “and” are separate entries in the source; they are usually repeats but may differ in a detail not shown here. Equal values may be shown once.

Legend:
[1] = Interconversion of polymorphs (heating, dehydration, humidity, equilibration); format: physicochemical
Source text: In total, 15 forms were identified to be polymorphs or pseudo-polymorphs of the free form, including seven anhydrates, Forms A, C, H, J, K. L and O; four hydrates, Forms B, F, M and N; and three solvates, Forms D, E and I. In addition, a metastable form, Form G, and an amorphous form were also obtained.
The interconversion relation of polymorphs identified is outlined in FIG. 5.

[2] = tested on: LNCaP cells expressing ARR2PB-FireflyLuc and CMV-RenillaLuc; experiment: LNCaP ARR2PB-FireflyLuc reporter assay; format: cell-based; settings: Homo sapiens, +/−0.5 nM DHT, 48 h at 37° C.
Method: LNCaP cells expressing ARR2PB-FireflyLuc and CMV-RenillaLuc were treated with indicated concentrations of the test compound, enzalutamide (negative control), or DHT (positive control)+/−0.5 nM DHT for 48 h at 37° C. […] signals were read with the ImageXpress Micro Confocal System. Remaining activity (antagonist mode) was calculated as % Remaining Activity=100×[(Readsample−LCave)/(HCave−LCave)] where HC is cells treated with 0.5 nM DHT only and LC is cells treated with 10 uM enzalutamide+0.5 nM DHT. Activation (agonist mode) was calculated as % Activation=100×[(ReadSample−LCave)/(HCave−LCave)] where HC is cells treated with 1 uM DHT and LC is cells treated with DMSO. Dose response curves and IC50 values were calculated using non-linear regression analysis in XLfit.

[3] = Solution state chemical stability; format: physicochemical; settings: for Purity: ~10 mg/ml
Method: The solution state chemical stability was carried out in acetone, MEK, and 2-MeTHF solvent systems at 50° C. and 55° C. […] The purity of the compound degraded from 99.43% to 98.27% after 48 h holding at 55° C. in MEK solvent system.
2-MeTHF/n-hep was selected as the potential solvent system for the crystallization. The solution state chemical stability was carried out in 2-MeTHF solvent systems at higher temperature (60° C. and 70° C.).

[4] = Competitive equilibration experiments of anhydrates; settings: at both 25° C. and 50° C.
Method: Relative stability of the anhydrate Forms A, C, H and J was investigated with competitive equilibration experiments.
Relative stability of the anhydrates Forms C, K and L was investigated with competitive equilibration experiments.
To determine relative stability of anhydrates, competitive equilibration experiments were conducted in different solvent systems.
About 2 mg of each anhydrate was added to 0.3-0.4 mL saturated solutions of selected solvents. Obtained suspensions were stirred at 25° C. for 3-10 days, respectively. Solid parts (wet cakes) were isolated by centrifugation filtration and investigated by XRPD.

With `Cc1nc(-c2c[nH]c3c(C#N)cccc23)cnc1OCC(C)(C)O` [Form M, 3-(5-(2-hydroxy-2-methylpropoxy)-6-methylpyrazin-2-yl)-1H-indole-7-carbonitrile] the Form conversion ([1]; equilibration in MeOH at 25° C. for another 1 day) was “converts to Form B” and the Form conversion ([1]; wet cake from methanol, once exposed to the air) was “converted to Form B”.

Work on `Cc1nc(-c2c[nH]c3c(C#N)cccc23)cnc1OCC(C)(C)O` [3-(5-(2-hydroxy-2-methylpropoxy)-6-methylpyrazin-2-yl)-1H-indole-7-carbonitrile] yielded a pIC50 [2] of 7.30, a Purity ([3]; 2-MeTHF, 55° C., 0 h) of 99.35% a % and a Purity ([3]; 2-MeTHF, 55° C., 6 h) of 99.55% a %. It also gave a Purity ([3]; 2-MeTHF, 55° C., 24 h) of 99.62% a %, a Purity ([3]; 2-MeTHF, 55° C., 48 h) of 99.62% a % and a Purity ([3]; 2-MeTHF, 60° C., 0 h) of 99.54% a %. It also gave a Purity ([3]; 2-MeTHF, 60° C., 24 h) of 99.69% a %, a Purity ([3]; 2-MeTHF, 60° C., 48 h) of 99.56% a % and a Purity ([3]; 2-MeTHF, 70° C., 0 h) of 99.53% a %. It also gave a Purity ([3]; 2-MeTHF, 70° C., 24 h) of 99.70% a %, a Purity ([3]; 2-MeTHF, 70° C., 48 h) of 99.44% a % and a Purity ([3]; 2-MeTHF/n-hep = 1 v/1 v, 70° C., 0 h) of 98.45% a %. For the same compound, the Purity ([3]; 2-MeTHF/n-hep = 1 v/1 v, 70° C., 24 h) was 98.44% a %, the Purity ([3]; 2-MeTHF/n-hep = 1 v/1 v, 70° C., 48 h) was 98.44% a % and the Purity ([3]; Acetone, 50° C., 0 h) was 99.54% a %. The Purity ([3]; Acetone, 50° C., 6 h) was 99.50% a %, the Purity ([3]; Acetone, 50° C., 24 h) was 99.51% a % and the Purity ([3]; Acetone, 50° C., 48 h) was 99.69% a %. The Purity ([3]; MEK, 55° C., 0 h) was 99.43 a % and 99.43% a %, the Purity ([3]; MEK, 55° C., 6 h) was 99.23% a % and the Purity ([3]; MEK, 55° C., 24 h) was 98.54% a %. For the same compound, the Purity ([3]; MEK, 55° C., 48 h) was 98.27 a % and 98.27% a %, the “Solution state chemical stability” value ([3]; after 48 h holding in 2-MeTHF at 60° C. and 70° C.) was “stable” and the “Solution state chemical stability” value ([3]; after 48 h holding in 2-MeTHF/n-hep=1v/1v at 70° C.) was “stable”. The “Solution state chemical stability” value ([3]; after 48 h holding in both acetone and 2-MeTHF systems (50° C. and 55° C.)) was “stable”.

In the case of `Cc1nc(-c2c[nH]c3c(C#N)cccc23)cnc1OCC(C)(C)O` [Form B, 3-(5-(2-hydroxy-2-methylpropoxy)-6-methylpyrazin-2-yl)-1H-indole-7-carbonitrile], the Form conversion ([1]; after dehydration) was “converts to Form K”.

For `Cc1nc(-c2c[nH]c3c(C#N)cccc23)cnc1OCC(C)(C)O` [Form E, 3-(5-(2-hydroxy-2-methylpropoxy)-6-methylpyrazin-2-yl)-1H-indole-7-carbonitrile], the Form conversion ([1]; after heating to 100° C. by TGA and cooled to room temperature) was “converts to physical mixture of Form F and Form G”.

In the case of `Cc1nc(-c2c[nH]c3c(C#N)cccc23)cnc1OCC(C)(C)O` [Form K, 3-(5-(2-hydroxy-2-methylpropoxy)-6-methylpyrazin-2-yl)-1H-indole-7-carbonitrile], the Form conversion ([1]; after melting and re-crystallization (DSC, VT-XRPD)) was “converts to Form L”, the Form conversion ([1]; exposure to 25° C. in 40-70% RH for 6 days) was “reverts back to Form B” and the Form conversion ([1]; exposure to 25° C./92% RH for 6 days) was “converts to hydrate Form B”.

With `Cc1nc(-c2c[nH]c3c(C#N)cccc23)cnc1OCC(C)(C)O` [amorphous form, 3-(5-(2-hydroxy-2-methylpropoxy)-6-methylpyrazin-2-yl)-1H-indole-7-carbonitrile] the Form conversion ([1]; after exposure to high humidity) was “crystallized to Form N”.

In the case of `Cc1nc(-c2c[nH]c3c(C#N)cccc23)cnc1OCC(C)(C)O` [Form G, 3-(5-(2-hydroxy-2-methylpropoxy)-6-methylpyrazin-2-yl)-1H-indole-7-carbonitrile], the Form conversion ([1]; equilibration in DMSO/water system at 25° C. for 6 days) was “converts to anhydrate Form H”.

In the case of `Cc1nc(-c2c[nH]c3c(C#N)cccc23)cnc1OCC(C)(C)O` [Form D, 3-(5-(2-hydroxy-2-methylpropoxy)-6-methylpyrazin-2-yl)-1H-indole-7-carbonitrile], the Form conversion ([1]; after desolvation) was “converts to Form C”.

For `Cc1nc(-c2c[nH]c3c(C#N)cccc23)cnc1OCC(C)(C)O` [Form I, 3-(5-(2-hydroxy-2-methylpropoxy)-6-methylpyrazin-2-yl)-1H-indole-7-carbonitrile], the Form conversion ([1]; after heating to 140° C. by TGA and cooled to room temperature) was “converted to physical mixture of Form C, Form N and an unknown peak”.

In the case of `Cc1nc(-c2c[nH]c3c(C#N)cccc23)cnc1OCC(C)(C)O` [Form A, 3-(5-(2-hydroxy-2-methylpropoxy)-6-methylpyrazin-2-yl)-1H-indole-7-carbonitrile], the “Relative thermodynamic stability of anhydrates” value [4] was “converts to Form C”.
